Peptide text beside a SMILES is read from it.
Tests used:
[1] = target: T1, FPR2 (Homo sapiens, UniProt P25090); test: Change in calcium activity by peptide (Fura-2) in RBL cells overexpressing FPR2; format: cell-based; conditions: calcium activity (Fura-2), graded per Table 3, read-out: EC50 for [Ca^2+] FPR2
T1 construct: expressed in transfected cells; host or cells: RBL cells (RBL-FPR2)
T1 sequence (P25090 1-351): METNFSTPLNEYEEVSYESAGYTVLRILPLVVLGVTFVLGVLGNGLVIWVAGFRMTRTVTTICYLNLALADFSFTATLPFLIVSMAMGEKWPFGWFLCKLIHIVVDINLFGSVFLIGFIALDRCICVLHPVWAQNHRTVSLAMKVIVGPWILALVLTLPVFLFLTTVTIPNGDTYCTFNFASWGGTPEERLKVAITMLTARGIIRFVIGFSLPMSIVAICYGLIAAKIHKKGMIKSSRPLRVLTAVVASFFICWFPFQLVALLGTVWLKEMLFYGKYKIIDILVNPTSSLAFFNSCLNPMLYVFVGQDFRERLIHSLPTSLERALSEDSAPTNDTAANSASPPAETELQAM
Method in brief: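 Peptide-induced intracellular calcium change measured by Fura-2 fluorescence on a plate reader. Cells: RBL line overexpressing FPR2, dye-loaded 1 h at 37 °C then 30 min at RT in dark; peptides from 0.5 mM water/50% DMSO stocks, diluted in HBSS with 20 mM HEPES.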

[2] = target: T2, FPR1 (Homo sapiens, UniProt P21462); test: Change in calcium activity by peptide, FPR1 activation effect; format: cell-based; conditions: calcium activity (Fura-2), graded per Table 3, read-out: EC50 for [Ca^2+] FPR1
T2 sequence (P21462 1-350): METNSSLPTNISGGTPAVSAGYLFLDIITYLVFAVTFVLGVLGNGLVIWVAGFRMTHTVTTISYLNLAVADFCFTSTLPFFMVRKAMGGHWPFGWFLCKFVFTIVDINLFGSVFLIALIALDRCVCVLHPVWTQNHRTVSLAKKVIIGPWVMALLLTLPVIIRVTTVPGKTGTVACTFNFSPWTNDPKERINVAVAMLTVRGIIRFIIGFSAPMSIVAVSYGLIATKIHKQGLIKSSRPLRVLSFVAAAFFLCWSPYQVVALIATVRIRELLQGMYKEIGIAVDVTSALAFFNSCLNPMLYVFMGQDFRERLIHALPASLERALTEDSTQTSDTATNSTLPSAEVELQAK
Method in brief: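 Calcium flux induced by peptide addition was monitored on a FlexStation 3 plate reader. Before this, cells seeded a day earlier (3×10^5/well) took up the Fura-2 dye for 1 h at 37 °C plus 30 min dark at room temperature.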

[3] = test system: RAW264.7 cell line; test: Cytokine inhibition ability: LPS-induced cytokine gene expression in RAW264.7 macrophages; format: cell-based, mouse; conditions: grade of reduction rate of gene expression, peptide 100 nM, LPS 200 ng/mL, 6 hours
Method: The present inventors observed the cytokine inhibition ability of the immunomodulatory peptide candidates prepared according to one example of the present invention. Specifically, to confirm whether the peptides reduce inflammatory responses in cells, changes in cytokine gene expression in cells upon inflammation was measured.
The present inventors used a RAW264.7 cell line, that is, mouse macrophages, and used lipopolysaccharide (LPS; Sigma-Aldrich, #L2630), which is the main component of a gram-negative bacterial cell wall, as a material causing an inflammatory response. A peptide that had been dissolved in water at 100 μM was prepared.
In the present experiment, the cells were cultured in a DMEM (Lonza, #BE12-604F) containing 10% FBS and 1% penicillin-streptomycin under conditions of 37° C. and 5% CO2.
The cells were plated in a 24-well plate (Costar, #3603) at a density of 2.5×10^5 cells/well. After 24 hours, the prepared cells were treated with the peptide at 100 nM. After incubation at 37° C. for 30 minutes, to induce inflammation, 200 ng/mL of LPS was treated. After incubation at 37° C. for 6 hours, the cells in a medium-free state were treated with TRIzol™ (Invitrogen, #15596018) to lyse the cells. Through the given experimental method, RNA was obtained, cDNA was produced using a reverse transcriptase (Promega, #M1705). Afterward, a cytokine expression level was measured using SYBR Green (Enzynomics, RT530) and mouse primers of each inflammatory cytokine gene (TNFα, IL-6, and IL-1β).

EC50 [1] [nM] | EC50 [2] [nM] | Compound | Cytokine inhibition ability IL-1β [3] | Cytokine inhibition ability IL-6 [3] | Cytokine inhibition ability TNFα [3]
< 10 | > 10000 | CSCC[C@H](NC(=O)[C@H](CCCNC(=N)N)NC(C)=O)C(=O)N[C@@H](CCCNC(=N)N)C(=O)N[C@@H](Cc1ccc(O)cc1)C(=O)N[C@@H](CCCCN)C(=O)N[C@H](C(=O)N[C@H](CCSC)C(N)=O)C(C)C [Peptide 6] (HELM PEPTIDE1{[ac].R.M.R.Y.K.V.[dM].[am]}$$$$V2.0) | A (81%-100%) | C (41%-60%) | A (81%-100%)
11 to 100 | > 10000 | CCCCCCCC(=O)N[C@@H](CCSC)C(=O)N[C@@H](CCCCN)C(=O)N[C@@H](Cc1ccc(O)cc1)C(=O)N[C@@H](CCCCN)C(=O)N[C@H](C(=O)N[C@H](CCSC)C(N)=O)C(C)C [Peptide 20] (HELM PEPTIDE1{[CCCCCCCC(=O)[*:2]].M.K.Y.K.V.[dM].[am]}$$$$V2.0) | B (61%-80%) | B (61%-80%) | B (61%-80%)
11 to 100 | > 10000 | CCCCCCCC(=O)N[C@@H](CCCNC(=N)N)C(=O)N[C@@H](CCSC)C(=O)N[C@@H](CCCNC(=N)N)C(=O)N[C@@H](Cc1ccc(O)cc1)C(=O)N[C@@H](Cc1c[nH]c2ccccc12)C(=O)N[C@@H](Cc1ccc(O)cc1)C(=O)N[C@H](CCSC)C(N)=O [Peptide 84] (HELM PEPTIDE1{[CCCCCCCC(=O)[*:2]].R.M.R.Y.W.Y.[dM].[am]}$$$$V2.0) | B (61%-80%) | E (0%-20%) | A (81%-100%)
11 to 100 | > 10000 | CCCCCCCC(=O)N[C@@H](CCCNC(=N)N)C(=O)N[C@@H](CCSC)C(=O)N[C@@H](CCCNC(=N)N)C(=O)N[C@@H](Cc1ccc(O)cc1)C(=O)N[C@@H](CCCCN)C(=O)N[C@@H](Cc1ccc(O)cc1)C(=O)N[C@H](CCSC)C(N)=O [Peptide 40] (HELM PEPTIDE1{[CCCCCCCC(=O)[*:2]].R.M.R.Y.K.Y.[dM].[am]}$$$$V2.0) | A (81%-100%) | C (41%-60%) | B (61%-80%)

From US20250361268A1, “NOVEL ANTI-INFLAMMATORY PEPTIDE AND USE THEREOF” (NOVACELL TECHNOLOGY INC., priority 2022, published 2025)
